One series concerns mice. Put plainly: Reversal effect against pentobarbital-induced hypothermia (Experiment 1). It counts as in vivo. The conditions noted are these: i.v., 10 minutes after pentobarbital (55 mg/kg i.p.), rectal temperature 30 minutes after test compound, dose required to reduce pentobarbital-hypothermia by 1.5° C.; for ED (1.5 degC): Mus musculus, iv, 0.5 h, read-out: Reversal effect against pentobarbitalhypothermia ED1.5° C. As for the experimental part: The following experiments show the action on low body temperature induced by pentobarbital (Experiment 1), and on acute toxicity for typical compounds of the present invention.
Pentobarbital-induced hypothermia
Nine male mice weighing 18 to 22 g were used for each dosage of the test compounds. Mice were given intravenously various doses of test compounds 10 minutes after pentobarbital (55 mg/kg i.p.). Rectal temperature was measured before pentobarbital dosing and immediately before and 30 minutes after the test compounds. Effects of test compounds were evaluated as ED1.5° C., the dose required to reduce by 1.5° C. pentobarbital-hypothermia of control group of mice which received only pentobarbital and saline. The results are shown in Talbe 1.
(A) Reversal effect against pentobarbitalhypothermia ED1.5° C

The next series in a line: Acute toxicity (i.v.). More on the design: species or system mice. The conditions noted are these: mouse, in vivo, iv. The protocol:
That is, LD50 (i.v.) of the compound of the present invention was higher than 800 mg/kg.

Like-named read-outs stand apart in the source and are kept apart here.

On to `NC(=O)[C@@H]1CCCN1C(=O)[C@H](Cc1c[nH]cn1)NC(=O)[C@H]1NC(=O)[C@@H]1Cc1ccccc1` [N^α -[(2S,3R)-3-benzyl-4-oxo-2-azetidinylcarbonyl]-L-histidyl-L-prolinamide], for which the ED (1.5 degC) with mice worked out at 0.04 mg/kg.
Still for that read-out and setting: the same measure for `NC(=O)[C@@H]1CCCN1C(=O)[C@H](Cc1c[nH]cn1)NC(=O)[C@@H]1CC(=O)N1CO` [N^α -[(S)-1-hydroxymethyl-4-oxo-2-azetidinylcarbonyl]-L-histidyl-L-prolinamide]: 0.04 mg/kg.
Regarding `NC(=O)[C@@H]1CCCN1C(=O)[C@H](Cc1c[nH]cn1)NC(=O)[C@@H]1CCC(=O)N1` [TRH, L-pyroglutamyl-L-histidyl-L-prolinamide, reference compound], the “Reversal effect against pentobarbitalhypothermia ED1.5° C” value with mice worked out at 0.1 mg/kg. In addition, the LD50 (in general, the dose at which mortality reaches 50%) at 24 h in the series “Acute toxicity (i.v.)” (male mice, observed for 24 hours, read-out: LD50 (i.v.)) was 751 mg/kg.
For `C[C@H]1C(=O)N[C@@H]1C(=O)N[C@@H](Cc1cn(C)cn1)C(=O)N1CCC[C@H]1C(N)=O` [.tau.-Methyl-N^α --[(2S,3R)--3-methyl-4-oxo-2-azetidinyl-carbonyl]-L-histidyl-L-prolinamide], the ED (1.5 degC) with mice is 0.02 mg/kg.
The same measure, in the same setting: the same measure for `CC(O)[C@H]1C(=O)N[C@@H]1C(=O)N[C@@H](Cc1c[nH]cn1)C(=O)N1CCC[C@H]1C(N)=O` (stereo partly drawn) [N^α -[(2S,3S)-3-(1-hydroxyethyl)-4-oxo-2-azetidinylcarbonyl]-L-histidyl-L-prolinamide]: 0.07 mg/kg; for `Cn1cnc(C[C@H](NC(=O)[C@H]2NC(=O)C2(C)C)C(=O)N2CCC[C@H]2C(N)=O)c1` [N^α -[(S)-3,3-dimethyl-4-oxo-2-azetidinylcarbonyl]-.tau.-methyl-L-histidyl-L-prolinamide]: 0.01 mg/kg.
Consider `CS[C@H]1C(=O)N[C@@H]1C(=O)N[C@@H](Cc1c[nH]cn1)C(=O)N1CCC[C@H]1C(N)=O` [N^α -[(2R,3R)-3-methylthio-4-oxo-2-azetidinylcarbonyl]-L-histidyl-L-prolinamide], for which the ED (1.5 degC) with mice was 0.08 mg/kg.
In the series “Acute toxicity (i.v.)”, `CC1(C)C(=O)N[C@@H]1C(=O)N[C@@H](Cc1c[nH]cn1)C(=O)N1CCC[C@H]1C(N)=O` [N^α -[(S)-3,3-dimethyl-4-oxo-2-azetidinylcarbonyl]-L-histidyl-L-prolinamide] registered a median lethal dose (LD50) at 24 h above 800 mg/kg.
On to `[N-]=[N+]=N[C@H]1C(=O)N[C@@H]1C(=O)N[C@@H](Cc1c[nH]cn1)C(=O)N1CCC[C@H]1C(N)=O` [N^α -[(2S,3R)-3-azido-4-oxo-2-azetidinylcarbonyl]-L-histidyl-L-prolinamide], for which the ED (1.5 degC) in the series with mice was below 0.01 mg/kg.

Values taken from patent US4719207A, “CNS active substituted azetidinone compounds” (Yamanouchi Pharmaceutical Co., Ltd., priority 1984, dated 1988).
